Measurements: ChEMBL document CHEMBL3044672, “N9- and N7-(Chloromethyl Phenymethyl)Chloropurine Derivatives from , '-Dichloroxylenes: Synthesis and Anticancer Activity” (2005)

Tests used:
Assay type in all cases: functional
OVCAR-5 = assay: Cytotoxicity against Homo sapiens (human) OVCAR5 cells after 48 hr by sulforhodamine B assay; conditions: OVCAR-5, 48 h; for CC50: read-out: LC50 (the source's name)
LOX IMVI = assay: Cytotoxicity against Homo sapiens (human) LOXIMVI cells after 48 hr by sulforhodamine B assay
RPMI-8226 = assay: Cytotoxicity against Homo sapiens (human) RPMI8226 cells after 48 hr by sulforhodamine B assay; conditions: RPMI-8226, 48 h; for CC50: read-out: LC50 (the source's name)
Hs-578T = assay: Cytotoxicity against Homo sapiens (human) Hs 578T cells after 48 hr by sulforhodamine B assay
NCI-H460 [1] = assay: Cytotoxicity against Homo sapiens (human) NCI-H460 cells after 48 hr by sulforhodamine B assay; conditions: NCI-H460, 48 h; for CC50: read-out: LC50 (the source's name)
SK-OV-3 = assay: Cytotoxicity against Homo sapiens (human) SKOV3 cells after 48 hr by sulforhodamine B assay; conditions: SK-OV-3, 48 h
BT-549 = assay: Cytotoxicity against Homo sapiens (human) BT549 cells after 48 hr by sulforhodamine B assay; conditions: BT-549, 48 h
DU-145 = assay: Cytotoxicity against Homo sapiens (human) DU145 cells after 48 hr by sulforhodamine B assay; conditions: DU-145, 48 h
M14 = assay: Cytotoxicity against Homo sapiens (human) M14 cells after 48 hr by sulforhodamine B assay; conditions: M14, 48 h
ACHN = assay: Cytotoxicity against Homo sapiens (human) ACHN cells after 48 hr by sulforhodamine B assay; conditions: for CC50: read-out: LC50 (the source's name)
SF-268 = assay: Cytotoxicity against Homo sapiens (human) SF268 cells after 48 hr by sulforhodamine B assay; conditions: SF-268, 48 h; for CC50: read-out: LC50 (the source's name)
A498 = assay: Cytotoxicity against Homo sapiens (human) A498 cells after 48 hr by sulforhodamine B assay; conditions: A498, 48 h
SW-620 = assay: Cytotoxicity against Homo sapiens (human) SW620 cells after 48 hr by sulforhodamine B assay; conditions: SW-620, 48 h; for CC50: read-out: LC50 (the source's name)
SF-295 = assay: Cytotoxicity against Homo sapiens (human) SF295 cells after 48 hr by sulforhodamine B assay; conditions: SF-295, 48 h; for CC50: read-out: LC50 (the source's name)
CCRF-CEM = assay: Cytotoxicity against Homo sapiens (human) CCRF-CEM cells after 48 hr by sulforhodamine B assay; conditions: for CC50: read-out: LC50 (the source's name)
T47D = assay: Cytotoxicity against Homo sapiens (human) T47D cells after 48 hr by sulforhodamine B assay
SK-MEL-28 = assay: Cytotoxicity against Homo sapiens (human) SK-MEL-28 cells after 48 hr by sulforhodamine B assay; conditions: SK-MEL-28, 48 h
NCI-H460 [2] = assay: Cytotoxicity against Homo sapiens (human) NCI-H460 cells assessed as cell growth at 10^-4 M after 48 hr by Alamar blue assay; conditions: NCI-H460, 48 h, read-out: Activity
SNB-19 = assay: Cytotoxicity against Homo sapiens (human) SNB19 cells after 48 hr by sulforhodamine B assay; conditions: SNB-19, 48 h
TK-10 = assay: Cytotoxicity against Homo sapiens (human) TK10 cells after 48 hr by sulforhodamine B assay; conditions: TK-10, 48 h; for CC50: read-out: LC50 (the source's name)
MCF7 [3] = assay: Cytotoxicity against Homo sapiens (human) MCF7 cells after 48 hr by sulforhodamine B assay; conditions: MCF7, 48 h
HCT-15 = assay: Cytotoxicity against Homo sapiens (human) HCT15 cells after 48 hr by sulforhodamine B assay; conditions: HCT-15, 48 h; for CC50: read-out: LC50 (the source's name)
OVCAR-8 = assay: Cytotoxicity against Homo sapiens (human) OVCAR8 cells after 48 hr by sulforhodamine B assay; conditions: OVCAR-8, 48 h
SNB-75 = assay: Cytotoxicity against Homo sapiens (human) SNB75 cells after 48 hr by sulforhodamine B assay; conditions: SNB-75, 48 h; for CC50: read-out: LC50 (the source's name)
MCF7 [4] = assay: Cytotoxicity against Homo sapiens (human) MCF7 cells assessed as cell growth at 10^-4 M after 48 hr by Alamar blue assay; conditions: MCF7, 48 h, read-out: Activity
786-0 = assay: Cytotoxicity against Homo sapiens (human) 786-0 cells after 48 hr by sulforhodamine B assay; conditions: 786-0, 48 h
UO-31 = assay: Cytotoxicity against Homo sapiens (human) UO31 cells after 48 hr by sulforhodamine B assay; conditions: UO-31, 48 h
HOP-92 = assay: Cytotoxicity against Homo sapiens (human) HOP92 cells after 48 hr by sulforhodamine B assay; conditions: HOP-92, 48 h

## ClCc1ccc(Cn2cnc3nc(Cl)nc(Cl)c32)cc1
OVCAR-5
  GI50: 2.18 µM
  TGI: 4.26 µM
  CC50: 8.31 µM
LOX IMVI
  GI50: 1.62 µM
  LC50: 6.45 µM
  TGI: 3.23 µM
RPMI-8226
  GI50: 1.65 µM
  TGI: 28.2 µM
  CC50: 97.7 µM
Hs-578T
  GI50: 19.1 µM
  LC50: > 100 µM
  TGI: 44.7 µM
NCI-H460 [1]
  GI50: 15.5 µM
  TGI: 35.5 µM
  CC50: 79.4 µM
SK-OV-3
  GI50: 2.34 µM
  LC50: 18.2 µM
  TGI: 5.01 µM
BT-549
  GI50: 1.86 µM
  LC50 (50% lethal concentration): 6.45 µM
  TGI: 3.46 µM
DU-145
  GI50: 1.81 µM
  LC50: 6.6 µM
  TGI: 3.46 µM
M14
  GI50: 1.44 µM
  LC50: 6.91 µM
  TGI: 3.16 µM
ACHN
  GI50: 1.9 µM
  TGI: 3.31 µM
  CC50: 5.75 µM
SF-268
  GI50: 1.99 µM
  TGI: 3.98 µM
  CC50: 7.94 µM
A498
  GI50: 11.2 µM
  LC50 (lethal concentration, 50% cell kill): 49 µM
  TGI: 23.4 µM
SW-620
  GI50: 13.2 µM
  TGI: 28.8 µM
  CC50: 64.6 µM
SF-295
  GI50: 1.81 µM
  TGI: 3.31 µM
  CC50: 5.88 µM
CCRF-CEM
  GI50: 14.8 µM
  TGI: 31.6 µM
  CC50: 66.1 µM
T47D
  GI50: 10.2 µM
  LC50: > 100 µM
  TGI: 46.8 µM
SK-MEL-28
  GI50: 2.18 µM
  LC50 (concentration killing 50% of cells): > 100 µM
  TGI: 5.12 µM
NCI-H460 [2]
  growth at 100 µM: 0%
SNB-19
  GI50: 29.5 µM
  LC50: > 100 µM
  TGI: > 100 µM
TK-10
  GI50: 0.12 µM
  TGI: 0.29 µM
  CC50: 0.72 µM
MCF7 [3]
  GI50: 4.16 µM
  LC50 (concentration killing 50% of cells): 83.2 µM
  TGI: 17 µM
HCT-15
  GI50: 1.81 µM
  TGI: 3.54 µM
  CC50: 6.76 µM
OVCAR-8
  GI50: 1.99 µM
  LC50 (concentration killing 50% of cells): 8.31 µM
  TGI: 4.07 µM
SNB-75
  GI50: 2.08 µM
  TGI: 3.98 µM
  CC50: 7.41 µM
MCF7 [4]
  growth at 100 µM: 1%
786-0
  GI50: 1.9 µM
  LC50: 7.41 µM
  TGI: 3.71 µM
UO-31
  GI50: 1.44 µM
  LC50 (concentration causing 50% net cell kill): 5.62 µM
  TGI: 2.88 µM

## ClCc1cccc(Cn2cnc3c(Cl)ncnc32)c1
HOP-92
  GI50: 2.45 µM
  TGI: 6.16 µM
HOP-92; read-out: LC50 (the source's name)
  CC50: 31.6 µM
OVCAR-5
  GI50: 2.08 µM
  TGI: 4.36 µM
  CC50: 8.91 µM
LOX IMVI
  GI50: 1.95 µM
  LC50: 27.5 µM
  TGI: 5.01 µM
RPMI-8226
  GI50: 3.8 µM
  TGI: 16.2 µM
  CC50: 87.1 µM
Hs-578T
  GI50: 3.46 µM
  LC50: 81.3 µM
  TGI: 11.5 µM
NCI-H460 [1]
  GI50: 11.8 µM
  TGI: 36.3 µM
  CC50: > 100 µM
SK-OV-3
  GI50: 3.31 µM
  LC50: 33.1 µM
  TGI: 10.5 µM
BT-549
  GI50: 15.1 µM
  LC50 (50% lethal concentration): 60.3 µM
  TGI: 30.2 µM
DU-145
  GI50: 11.2 µM
  LC50: 51.3 µM
  TGI: 24 µM
M14
  GI50: 1.66 µM
  LC50: 6.6 µM
  TGI: 3.31 µM
ACHN
  GI50: 2.08 µM
  TGI: 4.07 µM
  CC50: 8.12 µM
SF-268
  GI50: 3.54 µM
  TGI: 15.5 µM
  CC50: > 100 µM
A498
  GI50: 17.4 µM
  LC50 (lethal concentration, 50% cell kill): 58.9 µM
  TGI: 31.6 µM
SW-620
  GI50: 2.13 µM
  TGI: 4.36 µM
  CC50: 8.91 µM
SF-295
  GI50: 3.23 µM
  TGI: 8.7 µM
  CC50: 29.5 µM
CCRF-CEM
  GI50: 1.9 µM
  TGI: 3.89 µM
  CC50: 7.62 µM
T47D
  GI50: 3.02 µM
  LC50: > 100 µM
  TGI: 12.3 µM
SK-MEL-28
  GI50: 2.23 µM
  LC50 (concentration killing 50% of cells): 28.8 µM
  TGI: 5.75 µM
SNB-19
  GI50: 2.63 µM
  LC50: > 100 µM
  TGI: 12.6 µM
TK-10
  GI50: 4.57 µM
  TGI: 16.2 µM
  CC50: 46.8 µM
MCF7 [3]
  GI50: 7.76 µM
  LC50 (concentration killing 50% of cells): > 100 µM
  TGI: 77.6 µM
HCT-15
  GI50: 2.18 µM
  TGI: 4.67 µM
  CC50: 10 µM
OVCAR-8
  GI50: 21.9 µM
  LC50 (concentration killing 50% of cells): 79.4 µM
  TGI: 41.7 µM
SNB-75
  GI50: 2.08 µM
  TGI: 4.57 µM
  CC50: 10 µM
786-0
  GI50: 6.16 µM
  LC50: 50.1 µM
  TGI: 19.9 µM
UO-31
  GI50: 1.44 µM
  LC50 (concentration causing 50% net cell kill): 89.1 µM
  TGI: 36.3 µM

## ClCc1ccc(Cn2cnc3c(Cl)nc(Cl)nc32)cc1
OVCAR-5
  GI50: 18.2 µM
  TGI: 34.7 µM
  CC50: 66.1 µM
LOX IMVI
  GI50: 2.04 µM
  LC50: 8.32 µM
  TGI: 4.17 µM
RPMI-8226
  GI50: 1.74 µM
  TGI: 3.8 µM
Hs-578T
  GI50: 2.14 µM
  LC50: > 100 µM
  TGI: 5.75 µM
NCI-H460 [1]
  GI50: 2.4 µM
  TGI: 4.9 µM
  CC50: 28.8 µM
SK-OV-3
  GI50: 13.5 µM
  LC50: 66.1 µM
  TGI: 29.5 µM
BT-549
  GI50: 15.8 µM
  LC50 (50% lethal concentration): 56.2 µM
  TGI: 29.5 µM
DU-145
  GI50: 5.62 µM
  LC50: 42.7 µM
  TGI: 17.8 µM
M14
  GI50: 10.7 µM
  LC50: 53.7 µM
  TGI: 24 µM
ACHN
  GI50: 2.34 µM
  TGI: 5.25 µM
  CC50: 14.8 µM
SF-268
  GI50: 2.51 µM
  TGI: 5.37 µM
  CC50: 42.7 µM
A498
  GI50: 12 µM
  LC50 (lethal concentration, 50% cell kill): 52.5 µM
  TGI: 25.1 µM
SW-620
  GI50: 3.8 µM
  TGI: 17.4 µM
  CC50: 56.2 µM
SF-295
  GI50: 7.24 µM
  TGI: 19.5 µM
  CC50: 44.7 µM
CCRF-CEM
  GI50: 1.95 µM
  TGI: 4.57 µM
  CC50: 14.1 µM
T47D
  GI50: 1.38 µM
  LC50: > 100 µM
  TGI: 5.5 µM
SK-MEL-28
  GI50: 2.69 µM
  LC50 (concentration killing 50% of cells): 46.8 µM
  TGI: 6.92 µM
NCI-H460 [2]
  growth at 100 µM: 0%
SNB-19
  GI50: 2.51 µM
  LC50: > 100 µM
  TGI: 7.08 µM
TK-10
  GI50: 6.61 µM
  TGI: 20.4 µM
  CC50: 44.7 µM
MCF7 [3]
  GI50: 1.74 µM
  LC50 (concentration killing 50% of cells): > 100 µM
  TGI: 3.98 µM
HCT-15
  GI50: 1.86 µM
  TGI: 3.8 µM
  CC50: 7.59 µM
OVCAR-8
  GI50: 19.9 µM
  LC50 (concentration killing 50% of cells): 72.4 µM
  TGI: 38 µM
SNB-75
  GI50: 3.16 µM
  TGI: 9.33 µM
  CC50: 45.7 µM
MCF7 [4]
  growth at 100 µM: 0%
786-0
  GI50: 14.1 µM
  LC50: 61.7 µM
  TGI: 29.5 µM
UO-31
  GI50: 19.5 µM
  LC50 (concentration causing 50% net cell kill): 66.1 µM
  TGI: 35.5 µM
